Measurements as given in patent US20230085307A1, “PYRIDAZINONE COMPOUND AND HERBICIDE” (NISSAN CHEMICAL CORPORATION, priority 2019, published 2023).

Legend:
wild oat [1] = assay: Test Example 4: herbicidal effect by soil treatment (Table 19, symbol I); assay type: in vivo, wild oat (Avena fatua); conditions: amount of applied herbicide 320 g/ha
Summary of the method: (§1)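 Emulsion of test compound, water-diluted to predetermined amount, sprayed on soil after sowing (seed depth ~1.5 cm, sterilized diluvial soil). Greenhouse, 25–30° C. Effect graded at three weeks post-spray.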

blackgrass [2] = assay: Test Example 5: herbicidal effect by foliage application, plastic box (Table 20, symbol J); assay type: in vivo, blackgrass (Alopecurus myosuroides); conditions: 320 g/ha; for herbicidal effect on J: blackgrass (evaluation grade 0-5): foliage application after 14-day growth, evaluated three weeks after application; for herbicidal effect on blackgrass (J): three weeks after application
Summary of the method: (§2)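 Post-emergence foliar test in sterilized diluvial soil. Compound applied as water-diluted emulsion at a predetermined rate to 14-day-old plants; evaluation at three weeks.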

rice flat sedge = assay: Test Example 3: herbicidal effect by foliage application, Wagner pot (Table 18, symbol E); assay type: in vivo, rice flat sedge (Cyperus iria); conditions: for herbicidal effect on rice flat sedge (E): 320 g/ha; for Herbicidal effect on E (rice flat sedge), foliage application: amount of applied herbicide 320 g/ha
Summary of the method: (§3)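 Plants were sown in alluvial soil held under 0.1–0.5 cm standing water and grown 14 days in a greenhouse at 25–30 °C. An emulsifiable formulation, water-diluted to the set dose, was then sprayed onto the foliage, and effects were scored three weeks later using previously defined criteria.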

southern crabgrass [3] = assay: Test Example 4: herbicidal effect by soil treatment (Table 19, symbol F); assay type: in vivo, southern crabgrass (Digitaria ciliaris); conditions: amount of applied herbicide 320 g/ha
Summary of the method: as §1

southern crabgrass [4] = assay: Test Example 5: herbicidal effect by foliage application, plastic box (Table 20, symbol F); assay type: in vivo, southern crabgrass (Digitaria ciliaris); conditions: 320 g/ha; for herbicidal effect on F: southern crabgrass (evaluation grade 0-5): foliage application after 14-day growth, evaluated three weeks after application; for herbicidal effect on southern crabgrass (F): three weeks after application
Summary of the method: as §2

green foxtail = assay: Test Example 4: herbicidal effect by soil treatment (Table 19, symbol G); assay type: in vivo, green foxtail (Setaria viridis); conditions: amount of applied herbicide 320 g/ha
Summary of the method: as §1

Chinese sprangletop = assay: Test Example 3: herbicidal effect by foliage application, Wagner pot (Table 18, symbol D); assay type: in vivo, chinese sprangletop (Leptochloa chinensis); conditions: for herbicidal effect on Chinese sprangletop (D): 320 g/ha; for Herbicidal effect on D (Chinese sprangletop), foliage application: amount of applied herbicide 320 g/ha
Summary of the method: as §3

lambsquarters = assay: Test Example 5: herbicidal effect by foliage application, plastic box (Table 20, symbol O); assay type: in vivo, lambsquarters (Chenopodium album); conditions: 320 g/ha; for herbicidal effect on O: lambsquarters (evaluation grade 0-5): foliage application after 14-day growth, evaluated three weeks after application; for herbicidal effect on lambsquarters (O): three weeks after application
Summary of the method: as §2

wild oat [5] = assay: Test Example 5: herbicidal effect by foliage application, plastic box (Table 20, symbol I); assay type: in vivo, wild oat (Avena fatua); conditions: 320 g/ha; for herbicidal effect on I: wild oat (evaluation grade 0-5): foliage application after 14-day growth, evaluated three weeks after application; for herbicidal effect on wild oat (I): three weeks after application
Summary of the method: as §2

blackgrass [6] = assay: Test Example 4: herbicidal effect by soil treatment (Table 19, symbol J); assay type: in vivo, blackgrass (Alopecurus myosuroides); conditions: amount of applied herbicide 320 g/ha
Summary of the method: as §1

Japanese bulrush = assay: Test Example 2: herbicidal activity, application during weed generation under submerged conditions (Table 17, symbol B); assay type: in vivo, Japanese bulrush (Schoenoplectus juncoides); conditions: for herbicidal effect rating, B: Japanese bulrush: AAH 320 g/ha, application during weed generation, submerged conditions
Summary of the method: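 Steps: fill Wagner pots with alluvial soil; add water to give 4 cm depth; sow the species mixed; grow under glass at 25–30° C.; at 1–2 leaves apply water-diluted emulsion formulation to the water surface at a fixed herbicide amount; score after 3 weeks.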

redroot pigweed = assay: Test Example 4: herbicidal effect by soil treatment (Table 19, symbol N); assay type: in vivo, redroot pigweed (Amaranthus retroflexus); conditions: amount of applied herbicide 320 g/ha
Summary of the method: as §1

velvetleaf = assay: Test Example 5: herbicidal effect by foliage application, plastic box (Table 20, symbol M); assay type: in vivo, velvetleaf (Abutilon theophrasti); conditions: 320 g/ha; for herbicidal effect on M: velvetleaf (evaluation grade 0-5): foliage application after 14-day growth, evaluated three weeks after application; for herbicidal effect on velvetleaf (M): three weeks after application
Summary of the method: as §2

oval-leafed pondweed = assay: Test Example 1: herbicidal activity, application before weed generation under submerged conditions (Table 16, symbol C); assay type: in vivo, oval-leafed pondweed (Monochoria vaginalis); conditions: amount of applied herbicide 320 g/ha
Summary of the method: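 Alluvial soil was flooded to 4 cm depth, weed seeds were sown mixed and 2.5-leaf rice seedlings were transplanted. On sowing day, the compound's emulsion, diluted in water to a set dose, was applied to the water surface. Plants grew at 25–30 °C and were scored 0–5 after three weeks.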

barnyard grass = assay: Test Example 5: herbicidal effect by foliage application, plastic box (Table 20, symbol H); assay type: in vivo, barnyard grass (Echinochloa crus-galli); conditions: 320 g/ha; for herbicidal effect on H: barnyard grass (evaluation grade 0-5): foliage application after 14-day growth, evaluated three weeks after application; for herbicidal effect on barnyard grass (H): three weeks after application
Summary of the method: as §2

Italian ryegrass = assay: Test Example 5: herbicidal effect by foliage application, plastic box (Table 20, symbol K); assay type: in vivo, Italian ryegrass (Lolium multiflorum); conditions: 320 g/ha; for herbicidal effect on K: Italian ryegrass (evaluation grade 0-5): foliage application after 14-day growth, evaluated three weeks after application; for herbicidal effect on Italian ryegrass (K): three weeks after application
Summary of the method: as §2

[7] = foliage application, evaluated 3 weeks after application

Structure (SMILES) | Herbicidal effect by soil treatment, I: wild oat (wild oat [1]) | herbicidal effect on J: blackgrass (evaluation grade 0-5) (blackgrass [2]) | herbicidal effect on rice flat sedge (E) (rice flat sedge) | Herbicidal effect by soil treatment, F: southern crabgrass (southern crabgrass [3]) | herbicidal effect on F: southern crabgrass (evaluation grade 0-5) (southern crabgrass [4]) | Herbicidal effect by soil treatment, G: green foxtail (green foxtail) | herbicidal effect on Chinese sprangletop (D) (Chinese sprangletop) | herbicidal effect on O: lambsquarters (evaluation grade 0-5) (lambsquarters) | herbicidal effect on I: wild oat (evaluation grade 0-5) (wild oat [5]) | Herbicidal effect by soil treatment, J: blackgrass (blackgrass [6]) | herbicidal effect rating, B: Japanese bulrush (Japanese bulrush) | Herbicidal effect by soil treatment, N: redroot pigweed (redroot pigweed) | Herbicidal effect, C: oval-leafed pondweed (oval-leafed pondweed) | I: wild oat, herbicidal effect grade (wild oat [1]) | Herbicidal effect on E (rice flat sedge), foliage application (rice flat sedge) | F: southern crabgrass, herbicidal effect grade (southern crabgrass [3]) | G: green foxtail, herbicidal effect grade (green foxtail) | Herbicidal effect on D (Chinese sprangletop), foliage application (Chinese sprangletop) | J: blackgrass, herbicidal effect grade (blackgrass [6]) | N: redroot pigweed, herbicidal effect grade (redroot pigweed) | also measured
Cc1nn(C)c(=O)c(-c2c(-c3ccc(Cl)c(F)c3)sc3c(F)cccc23)c1O [4-054] | 0 (Herbicidal rate of 5% or less (almost no effect)) | 0 (Herbicidal rate of 5% or less (almost no effect)) | 0 (Herbicidal rate of 5% or less (almost no effect)) | 0 (Herbicidal rate of 5% or less (almost no effect)) | 2 (Herbicidal rate of 20% or more and less than 40%) | 0 (Herbicidal rate of 5% or less (almost no effect)) | 0 (Herbicidal rate of 5% or less (almost no effect)) | 3 (Herbicidal rate of 40% or more and less than 70%) | 0 (Herbicidal rate of 5% or less (almost no effect)) | 0 (Herbicidal rate of 5% or less (almost no effect)) | 2 (Herbicidal rate of 20% or more and less than 40%) | 2 (Herbicidal rate of 20% or more and less than 40%) | 0 (Herbicidal rate of 5% or less (almost no effect)) | – | – | – | – | – | – | – | herbicidal effect on M: velvetleaf (evaluation grade 0-5) (velvetleaf): 5 (Herbicidal rate of 90% or more (almost completely withered)); herbicidal effect on H: barnyard grass (evaluation grade 0-5) (barnyard grass): 4 (Herbicidal rate of 70% or more and less than 90%); herbicidal effect on K: Italian ryegrass (evaluation grade 0-5) (Italian ryegrass): 1 (Herbicidal rate of 5% or more and less than 20%)
CCCOc1ccc(-c2oc3ccccc3c2-c2c(O)c(C)nn(C)c2=O)cc1 [8-003] | – | – | – | – | – | – | – | – | – | – | 3 (Herbicidal rate of 40% or more and less than 70%) | – | 5 (Herbicidal rate of 90% or more (almost completely withered)) | 0 (Herbicidal rate of 5% or less (almost no effect)) | 4 (Herbicidal rate of 70% or more and less than 90%) | 3 (Herbicidal rate of 40% or more and less than 70%) | 2 (Herbicidal rate of 20% or more and less than 40%) | 3 (Herbicidal rate of 40% or more and less than 70%) | 1 (Herbicidal rate of 5% or more and less than 20%) | 5 (Herbicidal rate of 90% or more (almost completely withered)) | herbicidal effect on blackgrass (J) (blackgrass [2]; foliage application): 4 (Herbicidal rate of 70% or more and less than 90%); herbicidal effect on southern crabgrass (F) (southern crabgrass [4]; foliage application): 2 (Herbicidal rate of 20% or more and less than 40%); herbicidal effect on lambsquarters (O) (lambsquarters; foliage application): 3 (Herbicidal rate of 40% or more and less than 70%); herbicidal effect on wild oat (I) (wild oat [5]; foliage application): 1 (Herbicidal rate of 5% or more and less than 20%); herbicidal effect on velvetleaf (M) (velvetleaf; foliage application): 5 (Herbicidal rate of 90% or more (almost completely withered)); herbicidal effect on barnyard grass (H) (barnyard grass; foliage application): 5 (Herbicidal rate of 90% or more (almost completely withered)); herbicidal effect on Italian ryegrass (K) (Italian ryegrass; foliage application): 4 (Herbicidal rate of 70% or more and less than 90%)
Cc1nn(C)c(=O)c(-c2c(-c3ccc(OC(C)C)cc3)oc3ccc(F)cc23)c1O [9-025] | – | – | – | – | – | – | – | – | – | – | 3 (Herbicidal rate of 40% or more and less than 70%) | – | 5 (Herbicidal rate of 90% or more (almost completely withered)) | 0 (Herbicidal rate of 5% or less (almost no effect)) | 5 (Herbicidal rate of 90% or more (almost completely withered)) | 4 (Herbicidal rate of 70% or more and less than 90%) | 5 (Herbicidal rate of 90% or more (almost completely withered)) | 2 (Herbicidal rate of 20% or more and less than 40%) | 3 (Herbicidal rate of 40% or more and less than 70%) | 3 (Herbicidal rate of 40% or more and less than 70%) | herbicidal effect on blackgrass (J) (blackgrass [2]; foliage application): 4 (Herbicidal rate of 70% or more and less than 90%); herbicidal effect on southern crabgrass (F) (southern crabgrass [4]; foliage application): 5 (Herbicidal rate of 90% or more (almost completely withered)); herbicidal effect on lambsquarters (O) (lambsquarters; foliage application): 4 (Herbicidal rate of 70% or more and less than 90%); herbicidal effect on wild oat (I) (wild oat [5]; foliage application): 3 (Herbicidal rate of 40% or more and less than 70%); herbicidal effect on velvetleaf (M) (velvetleaf; foliage application): 5 (Herbicidal rate of 90% or more (almost completely withered)); herbicidal effect on barnyard grass (H) (barnyard grass; foliage application): 4 (Herbicidal rate of 70% or more and less than 90%); herbicidal effect on Italian ryegrass (K) (Italian ryegrass; foliage application): 5 (Herbicidal rate of 90% or more (almost completely withered))
CCCC(=O)Oc1c(C)nn(C)c(=O)c1-c1c(-c2ccc(OC)cc2)sc2c(Cl)cccc12 [4-024] | 0 (Herbicidal rate of 5% or less (almost no effect)) | 0 (Herbicidal rate of 5% or less (almost no effect)) | 5 (Herbicidal rate of 90% or more (almost completely withered)) | 0 (Herbicidal rate of 5% or less (almost no effect)) | 1 (Herbicidal rate of 5% or more and less than 20%) | 2 (Herbicidal rate of 20% or more and less than 40%) | 3 (Herbicidal rate of 40% or more and less than 70%) | 3 (Herbicidal rate of 40% or more and less than 70%) | 0 (Herbicidal rate of 5% or less (almost no effect)) | 0 (Herbicidal rate of 5% or less (almost no effect)) | 0 (Herbicidal rate of 5% or less (almost no effect)) | 3 (Herbicidal rate of 40% or more and less than 70%) | 3 (Herbicidal rate of 40% or more and less than 70%) | – | – | – | – | – | – | – | herbicidal effect on M: velvetleaf (evaluation grade 0-5) (velvetleaf): 4 (Herbicidal rate of 70% or more and less than 90%); herbicidal effect on H: barnyard grass (evaluation grade 0-5) (barnyard grass): 4 (Herbicidal rate of 70% or more and less than 90%); herbicidal effect on K: Italian ryegrass (evaluation grade 0-5) (Italian ryegrass): 4 (Herbicidal rate of 70% or more and less than 90%)
CCSc1ccc(-c2oc3ccc(C)cc3c2-c2c(O)c(C)nn(C)c2=O)cc1 [9-057] | – | – | – | – | – | – | – | – | – | – | – | – | 4 (Herbicidal rate of 70% or more and less than 90%) | 0 (Herbicidal rate of 5% or less (almost no effect)) | 5 (Herbicidal rate of 90% or more (almost completely withered)) | 5 (Herbicidal rate of 90% or more (almost completely withered)) | 5 (Herbicidal rate of 90% or more (almost completely withered)) | 3 (Herbicidal rate of 40% or more and less than 70%) | 0 (Herbicidal rate of 5% or less (almost no effect)) | 5 (Herbicidal rate of 90% or more (almost completely withered)) | J (blackgrass) herbicidal effect grade (blackgrass [2]; [7]): 5 (Herbicidal rate of 90% or more (almost completely withered)); F (southern crabgrass) herbicidal effect grade (southern crabgrass [4]; [7]): 5 (Herbicidal rate of 90% or more (almost completely withered)); O (lambsquarters) herbicidal effect grade (lambsquarters; [7]): 5 (Herbicidal rate of 90% or more (almost completely withered)); I (wild oat) herbicidal effect grade (wild oat [5]; [7]): 3 (Herbicidal rate of 40% or more and less than 70%); herbicidal effect grade, B: Japanese bulrush (Japanese bulrush; application during weed generation under submerged conditions, amount of applied herbicide 320 g/ha): 3 (Herbicidal rate of 40% or more and less than 70%); M (velvetleaf) herbicidal effect grade (velvetleaf; [7]): 5 (Herbicidal rate of 90% or more (almost completely withered)); H (barnyard grass) herbicidal effect grade (barnyard grass; [7]): 3 (Herbicidal rate of 40% or more and less than 70%); K (Italian ryegrass) herbicidal effect grade (Italian ryegrass; [7]): 5 (Herbicidal rate of 90% or more (almost completely withered))
